From the NIST ThermoML archive (doi:10.1021/acs.jced.9b00752)
± gives the expanded uncertainty stated by the source.

Test: mn = molality of the nth substance listed, in mol/kg
Details: 100 kPa, Liquid, Vibrating tube method

N[C@@H](Cc1c[nH]c2ccccc12)C(=O)O [L-tryptophan] + O
mass density [kg/m3]
Details	273.65 K	274.15 K	274.65 K	275.15 K	275.65 K	276.15 K	276.65 K	277.15 K	277.65 K	278.15 K
m1 = 0.0035	1000.09 ± 0.12	1000.12 ± 0.12	1000.14 ± 0.12	1000.15 ± 0.12	1000.17 ± 0.12	1000.18 ± 0.12	1000.18 ± 0.12	1000.18 ± 0.12	1000.18 ± 0.12	1000.17 ± 0.12
m1 = 0.009	1000.46 ± 0.12	1000.48 ± 0.12	1000.5 ± 0.12	1000.52 ± 0.12	1000.53 ± 0.12	1000.54 ± 0.12	1000.54 ± 0.12	1000.55 ± 0.12	1000.54 ± 0.12	1000.53 ± 0.12
m1 = 0.0179	1001.04 ± 0.12	1001.06 ± 0.12	1001.08 ± 0.12	1001.09 ± 0.12	1001.11 ± 0.12	1001.11 ± 0.12	1001.12 ± 0.12	1001.12 ± 0.12	1001.11 ± 0.12	1001.1 ± 0.12
m1 = 0.0306	1001.86 ± 0.12	1001.88 ± 0.12	1001.9 ± 0.12	1001.91 ± 0.12	1001.92 ± 0.12	1001.93 ± 0.12	1001.93 ± 0.12	1001.93 ± 0.12	1001.92 ± 0.12	1001.91 ± 0.12
m1 = 0.0352	1002.16 ± 0.12	1002.18 ± 0.12	1002.2 ± 0.12	1002.22 ± 0.12	1002.23 ± 0.12	1002.23 ± 0.12	1002.23 ± 0.12	1002.23 ± 0.12	1002.22 ± 0.12	1002.21 ± 0.12
m1 = 0.0429	1002.66 ± 0.12	1002.68 ± 0.12	1002.7 ± 0.12	1002.71 ± 0.12	1002.72 ± 0.12	1002.73 ± 0.12	1002.72 ± 0.12	1002.72 ± 0.12	1002.72 ± 0.12	1002.7 ± 0.12
m1 = 0.0536	1003.36 ± 0.12	1003.38 ± 0.12	1003.39 ± 0.12	1003.4 ± 0.12	1003.41 ± 0.12	1003.41 ± 0.12	1003.41 ± 0.12	1003.41 ± 0.12	1003.4 ± 0.12	1003.39 ± 0.12
m1 = 0.0595	1003.74 ± 0.12	1003.75 ± 0.12	1003.77 ± 0.12	1003.78 ± 0.12	1003.79 ± 0.12	1003.79 ± 0.12	1003.78 ± 0.12	1003.78 ± 0.12	1003.77 ± 0.12	1003.76 ± 0.12
m1 = 0.0659	1004.14 ± 0.12	1004.16 ± 0.12	1004.17 ± 0.12	1004.18 ± 0.12	1004.19 ± 0.12	1004.19 ± 0.12	1004.19 ± 0.12	1004.18 ± 0.12	1004.17 ± 0.12	1004.16 ± 0.12
m1 = 0.0769	1004.85 ± 0.12	1004.87 ± 0.12	1004.88 ± 0.12	1004.88 ± 0.12	1004.89 ± 0.12	1004.89 ± 0.12	1004.88 ± 0.12	1004.88 ± 0.12	1004.87 ± 0.12	1004.85 ± 0.12
